In this assay the test system is genetisch hypertonen Ratten. Kind of assay: Antihypertensive effect in the spontaneously hypertensive rat, systolic blood pressure by tail cuff after oral dosing. It is filed as in vivo, Ratte. The conditions noted are these: male SHR/N/Ibm/Bm rats, N=6, mean of day 1 and 2; for change in vivo at 25 µmol/kg / change in vivo at 10 µmol/kg: Rattus norvegicus, po; for change in vivo at 25 µmol/kg / BP (% Änderung vs. Kontrolle), Mittelwert für Meßzeitpunkte: Stunden nach Gabe (1. und 2. Tag) 2h / BP (% Änderung vs. Kontrolle), Mittelwert für Meßzeitpunkte: Stunden nach Gabe (1. und 2. Tag) 6h: 25 µmol/kg p.o. once daily on two consecutive days; for change in vivo at 10 µmol/kg: 10 µmol/kg p.o. once daily on two consecutive days. The text has this: Die antihypertensive Wirksamkeit der erfindungsgemäßen Verbindungen kann am Modell der spontan hypertonen Ratte nachgewiesen werden.
Zur Bestimmung der antihypertensiven Wirkung werden die unten aufgeführten Verbindungen in den angegebenen Dosen an zwei aufeinander folgenden Tagen an je 6 männlichen Ratten (Stamm SHR/N/Ibm/Bm, 250-350 g) mit genetisch bedingtem Hochdruck (systolischer Blutdruck > 180 mmHg) täglich einmal mittels Schlundsonde verabfolgt. Die Messung des Blutdrucks erfolgt jeweils 2, 6 und 24 Stunden nach Substanzgabe.
Die Blutdruckmessung wird in einer Wärmekammer bei 36°C vorgenommen, um eine bessere Durchblutung der Schwanzarterie zu erreichen. Hierzu werden die Tiere in perforierte Lochblechkäfige verbracht und 20 - 40 Min. nach Beginn der Aufwärmung gemessen. Zur Messung des systolischen arteriellen Drucks wird eine ringförmige Manschette mit aufblasbarer Gummimembran zur Unterbindung der Durchblutung und ein ringförmiger Piezokristallaufnehmer zur Erfassung der Pulswellen auf den Schwanz aufgeschoben. Nach erfolgter Unterbindung des Blutstroms in der Schwanzarterie wird der Manschettendruck kontinuierlich reduziert. Die Wiederkehr der Pulswellen bei Druckablassen wird automatisch als systolischer Blutdruck erkannt und ausgedruckt (Bühler, R. et al.: Microprocessor-based automation of blood pressure measurement in the conscious rat. Proceedings of the 4th international symposium on rats with spontaneous hypertension and related studies, Rascher, R. et al. (Eds.), Schattauer Verlag, Stuttgart, New York, 1982, S. 410-413). Pulssignale und Druckverlauf werden zur Auswertung graphisch aufgezeichnet.
Zur Gewöhnung an den Meßvorgang werden die Tiere vor Substanzprüfung 14 Tage trainiert. In der zweiten Trainingswoche werden Blutdruck-Vorwerte erhoben. Tiergruppen, die Substanz erhalten, werden gegen eine Kontrollgruppe geprüft. In der anschließenden Tabelle werden die untersuchten Verbindungen durch laufende Nummern gekennzeichnet, die mit den jeweiligen Beispielnummern übereinstimmen. Bei getrennten Diastereomeren ist der Drehwert des untersuchten Diastereomers angegeben.
Tabelle I gibt für die Vertreter der erfindungsgemäßen Verbindungen die prozentuale Senkung des Blutdrucks (BP) nach oraler Verabreichung bei der Ratte wieder.
%-Änderungen (BP) an genetisch hypertonen Ratten nach täglich einmaliger p.o.-Applikation an zwei aufeinanderfolgenden Tagen (N=6/Dosis).

Setting [1] is: 2 h, 2h after dosing, read-out: BP (% Änderung vs. Kontrolle), Mittelwert für Meßzeitpunkte: Stunden nach Gabe (1. und 2. Tag) 2h.
Setting [2] is: 6 h, 6h after dosing, read-out: BP (% Änderung vs. Kontrolle), Mittelwert für Meßzeitpunkte: Stunden nach Gabe (1. und 2. Tag) 6h.
The mark [3] stands for this setting: 24 h, 24h after dosing, read-out: BP (% Änderung vs. Kontrolle), Mittelwert für Meßzeitpunkte: Stunden nach Gabe (1. und 2. Tag) 24h.

These results are taken from patent publication EP0336132A1, “1-Phenylpropyl compounds” (Byk Gulden Lomberg Chemische Fabrik GmbH, priority 1988, dated 1989).

The structures appear in SMILES notation. Like-named read-outs stand apart in the source and are kept apart here.

As to `CN[C@H](C)[C@@H](OC(=O)C1=C(C)NC(C)=C(C(=O)OC)C1c1cccc([N+](=O)[O-])c1)c1ccccc1` (single isomer, unassigned) [7 (-88°)], the change in vivo at 25 µmol/kg by setting is: under setting [1], -56%; under setting [2], -46%; under setting [3], -11.5%.

`CN[C@@H](C)[C@H](OC(=O)C1=C(C)NC(C)=C(C(=O)OC)C1c1cccc([N+](=O)[O-])c1)c1ccccc1` (single isomer, unassigned) [8 (+202,6°)]: the change in vivo at 25 µmol/kg under setting [1] is -55%, the change in vivo at 25 µmol/kg under setting [2] was -43% and the change in vivo at 25 µmol/kg under setting [3] is -10.5%.

Take `CN[C@@H](C)[C@@H](OC(=O)C1=C(C)NC(C)=C(C(=O)OC)C1c1cccc([N+](=O)[O-])c1)c1ccccc1` (single isomer, unassigned) [9 (-66,3°)]: the change in vivo at 25 µmol/kg under setting [1] is -55% and the change in vivo at 25 µmol/kg under setting [2] is -49.5%.

Regarding `CN[C@H](C)[C@H](OC(=O)C1=C(C)NC(C)=C(C(=O)OC)C1c1cccc([N+](=O)[O-])c1)c1ccccc1` (single isomer, unassigned) [10 (+165,5°)], the change in vivo at 25 µmol/kg is -52% under setting [1] and -39.5% under setting [2].

As for `COC(=O)C1=C(C)NC(C)=C(C(=O)O[C@H](c2ccccc2)[C@H](C)N)C1c1cccc([N+](=O)[O-])c1` (single isomer, unassigned) [16 (+216,4°)], the change in vivo at 25 µmol/kg under setting [1] was -59%, the change in vivo at 25 µmol/kg under setting [2] was -56.5% and the change in vivo at 25 µmol/kg under setting [3] is -21.5%.

On to `COC(=O)C1=C(C)NC(C)=C(C(=O)O[C@@H](c2ccccc2)[C@@H](C)N)C1c1cccc([N+](=O)[O-])c1` (single isomer, unassigned) [17 (-104,3°)], for which the change in vivo at 25 µmol/kg under setting [1] was -56%, the change in vivo at 25 µmol/kg under setting [2] was -47% and the change in vivo at 25 µmol/kg under setting [3] is -14.5%.

Take `CCOC(=O)C1=C(C)NC(C)=C(C(=O)O[C@H](c2ccccc2)[C@H](C)N(C)C)C1c1cccc([N+](=O)[O-])c1` (single isomer, unassigned) [Beispiel 1a]: where the note is “2h after dosing”, the “BP (% Änderung vs. Kontrolle), Mittelwert für Meßzeitpunkte: Stunden nach Gabe (1. und 2. Tag) 2h” value is reported as -47,5%. In addition, the “BP (% Änderung vs. Kontrolle), Mittelwert für Meßzeitpunkte: Stunden nach Gabe (1. und 2. Tag) 6h” value (6h after dosing) is listed as -44,5%.

On to `CCOC(=O)C1=C(C)NC(C)=C(C(=O)O[C@H](c2ccccc2)[C@H](C)N(C)C)C1c1cccc([N+](=O)[O-])c1` (single isomer, unassigned) [Beispiel 1b], for which the “BP (% Änderung vs. Kontrolle), Mittelwert für Meßzeitpunkte: Stunden nach Gabe (1. und 2. Tag) 2h” value (2h after dosing) was -40,0%. In addition, where the note is “6h after dosing”, the “BP (% Änderung vs. Kontrolle), Mittelwert für Meßzeitpunkte: Stunden nach Gabe (1. und 2. Tag) 6h” value was -30,3%.

As to `CCOC(=O)C1=C(C)NC(C)=C(C(=O)O[C@@H](c2ccccc2)[C@@H](C)N(C)C)C1c1cccc([N+](=O)[O-])c1` (single isomer, unassigned) [Beispiel 2b], the change in vivo at 25 µmol/kg under setting [1] is -40% and the change in vivo at 25 µmol/kg under setting [2] is -34.3%.

In the case of `COC(=O)C1=C(C)NC(C)=C(C(=O)O[C@H](c2ccccc2)[C@H](C)N(C)Cc2ccccc2)C1c1cccc([N+](=O)[O-])c1` (single isomer, unassigned) [Beispiel 11], the change in vivo at 25 µmol/kg by setting is: under setting [1], -53.5%; under setting [2], -48%.

For the compound `CCN(C)[C@@H](C)[C@H](OC(=O)C1=C(C)NC(C)=C(C(=O)OC)C1c1cccc([N+](=O)[O-])c1)c1ccccc1` (single isomer, unassigned) [Beispiel 12], the change in vivo at 25 µmol/kg reads like this: under setting [1], -48.5%; under setting [2], -38%.

For the compound `COC(=O)C1=C(C)NC(C)=C(C(=O)O[C@H](c2ccccc2)[C@H](C)N(C)CC=Cc2ccccc2)C1c1cccc([N+](=O)[O-])c1` (single isomer, unassigned) [Beispiel 14], the change in vivo at 25 µmol/kg is -51.5% under setting [1] and -41.5% under setting [2].

In the case of `COC(=O)C1=C(C)NC(C)=C(C(=O)O[C@H](c2ccccc2)[C@@H](C)N(C)Cc2cc(OC)c(OC)c(OC)c2)C1c1cccc([N+](=O)[O-])c1` (single isomer, unassigned) [Beispiel 15], the change in vivo at 25 µmol/kg is, setting by setting: under setting [1], -62.5%; under setting [2], -56%; under setting [3], -37%.

For the compound `COC(=O)C1=C(C)NC(C)=C(C(=O)O[C@H](c2ccccc2)[C@H](C)N(C)Cc2cc([N+](=O)[O-])ccc2OC)C1c1cccc([N+](=O)[O-])c1` (single isomer, unassigned) [Beispiel 19], the change in vivo at 10 µmol/kg under setting [1] is -42%, the change in vivo at 10 µmol/kg under setting [2] is -23.5% and the change in vivo at 10 µmol/kg under setting [3] was -10.5%.
